{"source": "patent US8580579B2", "about": "“Hydrophilic and lipophilic rhodamines for labelling and imaging” (Max-Planck-Gesellschaft zur Foerderung der Wissenschaften …, priority 2009, dated 2013)", "key": {"[1]": {"assay": "Chemical and storage stability of dyes and reactive derivatives", "format": "physicochemical"}, "[2]": {"assay": "UV-visible absorption and fluorescence spectra of the dyes of the invention", "format": "physicochemical", "experimental": "UV-visible absorption spectra were recorded on a Varian Cary 4000 UV-Vis spectrophotometer, and fluorescence spectra on a Varian Cary Eclipse fluorescence spectrophotometer. Reactions were carried out upon magnetic stirring in Schlenk flasks equipped with septa or reflux condensers with bubble-counters under argon using a standard manifold with vacuum and argon lines. All NMR spectra are referenced to tetramethylsilane as an internal standard (δ=0 ppm) using the signals of the residual protons of CHCl3 (7.26 ppm) in CDCl3, CHD2OD (3.31 ppm) in CD3OD, HOD (4.75 ppm) in D2O, [D5]acetone (2.04 ppm) in [D6]acetone or [D5]DMSO (2.50 ppm) in [D6]DMSO. Multiplicities of signals are described as follows: s=singlet, br. s=broad singlet, d=doublet, t=triplet, q=quartet, quint=quintet, m=multiplet, mc=centrosymmetrical multiplet. Coupling constants (J) are given in Hz. Multiplicities in the ^13C NMR spectra were determined by APT (Attached Proton Test) measurements. Low resolution mass spectra (electro spray ionization, ESI) were obtained with LCQ and ESI-TOF mass-spectrometers (MICROTOF (focus), Fa. Bruker). The MICROTOF spectrometer equipped with ESI ion source Apollo and direct injector with LC autosampler Agilent RR 1200 was used for obtaining high resolution mass spectra (ESI-HRMS). ESI-HRMS were obtained also on APEX IV spectrometer (Bruker). HPLC system (Knauer): Smartline pump 1000 (2×), UV detector 2500, column thermostat 4000 (25° C.), mixing chamber, injection valve with 20 and 100 μL loop for the analytical and preparative columns, respectively; 6-port-3-channel switching valve; analytical column: Eurospher-100 C18, 5 μm, 250×4 mm, 1.1 mL/min; preparative column: Eurospher-100-5 C18, 5 μm, 250×8 mm, 3.7 mL/min; solvent A: water+0.1% v/v trifluoroacetic acid (TFA); solvent B: MeCN+0.1% v/v TFA; detection at 636 nm (if not stated otherwise). Normal phase analytical TLC was performed on MERCK ready-to-use plates with silica gel 60 (F254) and reversed phase TLC—on RP-18W/UV254 precoated TLC plates (Macherey-Nagel). Preparative TLC was performed on MERCK HPTLC silica gel 60 plates (10×10 cm, layer thickness 0.2 mm). Column chromatography: MERCK silica gel, grade 60, 0.04-0.063 mm or Polygoprep 60-50 C18 (Macherey-Nagel)."}, "[3]": {"assay": "physchem", "details": "water"}, "[4]": {"assay": "Fluorescence quantum yield, Atto 633 as reference", "format": "physicochemical", "details": "Atto 633 as reference (Φfl = 64% in aqueous buffer)", "description": "Moreover, intersystem crossing rates (kISC) and rates of the T1→S0 transitions were also found to be the same for both deuterated and undeuterated substances (see ref. to Table 2)."}, "[5]": {"assay": "Bleaching measurements by pump-probe cycles", "format": "physicochemical", "details": "50 pump-probe cycles, pump intensity 18 kW/cm^2, 633 nm CW, 10 ms pulses, air-oxygen", "experimental": "The degree of photodecomposition was evaluated by measuring the decrease in the fluorescence intensity of compound 6 (FIG. 5). […] The pulse duration was 10 ms, and the pulse power 18.3 kW/cm^2 (633 nm CW laser light). Photostability of compound 6 is strong: 50 pump-probe cycles with a pump intensity of 18 kW/cm^2 only bleach 25% of the ensemble allowing for a high number of single-molecule returns, i.e. a high number of single-molecule localizations and thus a final image with high contrast."}, "[6]": {"assay": "Excited state lifetime and FCS study under single molecule conditions", "format": "physicochemical"}, "[7]": {"assay": "Conjugation with antibodies: labelling degree and quantum yield of conjugates", "format": "physicochemical", "description": "The degree of labelling achieved with antibodies may strongly vary; typically, compounds 6/6D (taken as their NHS esters 9/9D) attached to the anti-rabbit and anti-mouse antibodies produced a labelling degree from 2.5 up to 6. […] Decrease in fluorescence quantum yields after conjugation with antibodies is normal and well documented [cf.: V. P. Boyarskiy, V. N. Below, R. Medda, B. Hein, M. Bossi, S. W. Hell, Chem. Eur. J. 2008, 14, 1784-1792]."}, "[8]": {"assay": "Ground state depletion studies (pump-probe mode)", "format": "physicochemical", "description": "The compound 6 is excellent for super-resolution far-field microscopy based on ground-state depletion, such as GSDIM (ground-state depletion followed by individual molecule return; J. Fölling et. al, Nature Meth. 2008, 5, 943-945). Here, “off” and “on” switching of the fluorescence is achieved by transiently shelving the fluorophore into a metastable dark state. Upon the return of only a few isolated single molecules to the fluorescent singlet state, positions of these single light emitting spots can be imaged on a camera and localized with high precision. Upon repeating this procedure and acquiring many pictures, a super-resolution image can be reconstructed from the localized positions. A prerequisite of this method is that >90% of the ensemble of the applied fluorescent dye can be shelved into a dark state at a time (to ensure the detection of isolated fluorescent spots at a time in a densely labeled sample) and that the fluorophore is bright enough, i.e., that it emits enough photons while being in the singlet on-state (to ensure high precision of localization). […] Switching off of the laser leads to a recovery of the fluorescence ensemble within a characteristic recovery time of 50 ms (FIG. 7), indicating the shelving into a metastable dark state. The measurements of FIGS. 6 and 7 were performed in a pump-probe mode, i.e., the residual level of fluorescence was probed with I=100 W/cm^2 for 0.5 ms after strong irradiation for 10 ms with the given laser intensity. Further on, recovery of the fluorescence can be accelerated by addition of UV light, which leads to an optically-induced de-population of the dark states. Already 2 kW/cm^2 of 375 nm light recovers 60% of the fluorescence within an irradiation period of 1 ms (FIG. 8). This is important in cases of samples of low label density where the addition of UV light and thus acceleration of dark state return helps to accelerate image acquisition."}, "[9]": {"assay": "Solubility and polarity of the dyes"}}, "note": "Entries after “also recorded” stand apart in the source; their conditions may differ.", "data": [{"smiles": "CN(CCC(=O)O)C(=O)c1c(F)c(F)c(F)c(F)c1C1=c2cc3c4c(c2Oc2c1cc1c5c2CCCN5C(C)(C)C=C1CS(=O)(=O)O)CCC[N+]=4C(C)(C)C=C3CS(=O)(=O)[O-]", "note": "[Compound 6]", "values": [{"measurement": "stability in methanol or methanol-containing solutions", "setting": "[1]", "value": "formed the corresponding methyl ester; also recorded: rapid esterification of the β-alanine fragment with methanol"}, {"measurement": "Stokes shift", "setting": "[2]; dyes of the invention", "value": 23, "unit": "nm"}, {"measurement": "ε · 10^−5", "setting": "[2]; solvent H2O", "value": 0.94, "unit": "M^−1 cm^−1"}, {"measurement": "λmax (abs.)", "setting": "[2]; solvent H2O", "value": 637, "unit": "nm"}, {"measurement": "λmax (fl.)", "setting": "[2]; solvent H2O", "value": 660, "unit": "nm"}, {"measurement": "solubility", "setting": "[3]", "value": "> 100", "unit": "mM"}, {"measurement": "Φfl in water", "setting": "[4]", "value": 80, "unit": "%"}, {"measurement": "fraction of the ensemble bleached", "setting": "[5]", "value": 25, "unit": "%"}, {"measurement": "τfl (excited state lifetime)", "setting": "[6]", "value": "3.57^20 ns"}, {"measurement": "fluorescence quantum yield of the conjugate", "setting": "[7]; conjugate with goat anti-rabbit antibodies", "value": 40, "unit": "%"}, {"measurement": "fluorescence quantum yield of the conjugate", "setting": "[7]; conjugate with sheep anti-mouse antibodies", "value": 48, "unit": "%"}, {"measurement": "fluorescence recovered by UV light", "setting": "[8]; 2 kW/cm^2 of 375 nm light, irradiation period 1 ms", "value": 60, "unit": "%"}, {"measurement": "extent of ground state depletion", "setting": "[8]; 633 nm laser pulses, ca. 12 kW/cm^2", "value": "97±3", "unit": "%"}, {"measurement": "fluorophores switched off at a time", "setting": "[8]; I>10 kW/cm^2 CW 633 nm, poly(vinyl alcohol) matrix", "value": 97, "unit": "%"}, {"measurement": "polarity", "setting": "[9]", "value": "polar; also recorded: hydrophilic"}, {"measurement": "solubility in organic solvents", "setting": "[9]", "value": "insoluble in diethyl ether, aliphatic, chlorinated, and aromatic hydrocarbons"}, {"measurement": "solubility in water or aqueous buffers", "setting": "[9]", "value": "soluble in water; also recorded: soluble in water or aqueous buffers"}, {"measurement": "solubility in water", "setting": "[9]; room temperature", "value": "40-45 mg in 1 mL"}]}]}
